From ChEMBL document CHEMBL1151812, “Homotyrosine-containing cyanopeptolins 880 and 960 and anabaenopeptins 908 and 915 from Planktothrix agardhii CYA 126/8” (J Nat Prod, 2009)
The source made the active and inactive calls. The rule behind the calls is not given here. Numbered stars: 1 amine (or outer) side, 2 acyl side, 3 side chain; on linkers, the order of the positions; unused ones are H or OH. Bridge positions count the residues as written; N and C are the ends. Square brackets hold non-standard residues; d marks the D form. Peptide text beside a SMILES is read from it. NMehTyr = CN[C@@H](CCc1ccc(O)cc1)C(=O)O; hTyr = N[C@@H](CCc1ccc(O)cc1)C(=O)O; CO = O=C([*:1])[*:2]

Experiments:
[1] = target: T1, Carboxypeptidase A1 (Homo sapiens) (UniProt P15085); assay: Inhibition of carboxypeptidase A up to 20 ug/ml
T1 sequence (whole entry): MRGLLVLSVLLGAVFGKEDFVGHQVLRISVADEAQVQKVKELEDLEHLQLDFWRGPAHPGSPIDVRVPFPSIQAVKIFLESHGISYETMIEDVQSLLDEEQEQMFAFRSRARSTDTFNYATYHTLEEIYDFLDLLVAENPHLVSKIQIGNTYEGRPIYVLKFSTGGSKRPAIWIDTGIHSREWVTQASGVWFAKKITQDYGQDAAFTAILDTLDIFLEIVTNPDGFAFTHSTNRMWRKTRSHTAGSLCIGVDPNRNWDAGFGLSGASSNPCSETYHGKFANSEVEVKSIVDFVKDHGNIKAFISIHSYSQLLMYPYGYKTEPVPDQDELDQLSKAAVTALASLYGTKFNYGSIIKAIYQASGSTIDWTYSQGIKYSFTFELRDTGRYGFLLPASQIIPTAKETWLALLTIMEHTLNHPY

[2] = Inhibition of trypsin up to 100 ug/ml
[3] = Inhibition of chymotrypsin up to 100 ug/ml
[4] = target: T2, Carboxypeptidase A1 (Homo sapiens, UniProt P15085); assay: Inhibition of carboxypeptidase A
T2 sequence (P15085 whole entry): T1 sequence (whole entry)

| Activity [1] | Activity [2] | Activity [3] | IC50 [4] | Structure (SMILES) |
| --- | --- | --- | --- | --- |
| inactive | inactive | inactive | – | CC[C@H](C)[C@@H]1NC(=O)[C@H](CCc2ccc(O)cc2)N(C)C(=O)[C@H](CCc2ccc(O)cc2)NC(=O)[C@H](C(C)C)NC(=O)[C@H](NC(=O)N[C@@H](CCCNC(=N)N)C(=O)O)CCCCNC1=O ({Arg-CO}-[dK]V[hTyr][NMehTyr]I; lactam 1-C) |
| – | inactive | inactive | 131 nM | CC[C@H](C)[C@@H]1NC(=O)[C@H](CCc2ccc(O)cc2)N(C)C(=O)[C@H](CCc2ccc(O)cc2)NC(=O)[C@H](C(C)C)NC(=O)[C@H](NC(=O)N[C@@H](Cc2ccc(O)cc2)C(=O)O)CCCCNC1=O [ANABAENOPEPTIN 915] ({Tyr-CO}-[dK]V[hTyr][NMehTyr]I; lactam 1-C) |
